Test system: KRAS patient-derived spheroids with HUVEC/MSC, viability
Assay: Anticancer human tumor 519858-162-T-J1-PDC patient-derived colon adenocarcinoma cell line growth inhibition [KRAS2]
Details: for IC50: curve of first compound; for viability, T/C: stronger effect = lower value
How it was run: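 KRAS-mutant tumor cells were grown as spheroids with HUVEC endothelial cells and human MSCs as stroma. Targeted agents were tested alone and with KRAS pathway inhibitors. Doses started at or near clinical Cmax, or 10 microM, descending half-log.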

[1] = second compound 0.0316 µM, first compound 0.0316 µM
[2] = second compound 0.0316 µM, first compound 0.1 µM
[3] = second compound 0.0316 µM, first compound 0.316 µM
[4] = second compound 0.0316 µM, first compound 1 µM
[5] = second compound 0.0316 µM, first compound 3.16 µM
[6] = second compound 0.0316 µM, first compound 10 µM
[7] = second compound 0.1 µM, first compound 0.0316 µM
[8] = second compound 0.1 µM, first compound 0.1 µM
[9] = second compound 0.1 µM, first compound 0.316 µM
[10] = second compound 0.1 µM, first compound 1 µM
[11] = second compound 0.1 µM, first compound 3.16 µM
[12] = second compound 0.1 µM, first compound 10 µM
[13] = second compound 0.316 µM, first compound 0.0316 µM
[14] = second compound 0.316 µM, first compound 0.1 µM
[15] = second compound 0.316 µM, first compound 0.316 µM
[16] = second compound 0.316 µM, first compound 1 µM
[17] = second compound 0.316 µM, first compound 3.16 µM
[18] = second compound 0.316 µM, first compound 10 µM
[19] = second compound 1 µM, first compound 0.0316 µM
[20] = second compound 1 µM, first compound 0.1 µM
[21] = second compound 1 µM, first compound 0.316 µM
[22] = second compound 1 µM, first compound 1 µM
[23] = second compound 1 µM, first compound 3.16 µM
[24] = second compound 1 µM, first compound 10 µM
[25] = second compound 3.16 µM, first compound 0.0316 µM
[26] = second compound 3.16 µM, first compound 0.1 µM
[27] = second compound 3.16 µM, first compound 0.316 µM
[28] = second compound 3.16 µM, first compound 1 µM
[29] = second compound 3.16 µM, first compound 3.16 µM
[30] = second compound 3.16 µM, first compound 10 µM
[31] = second compound 0.0316 µM, first compound 0.01 µM
[32] = second compound 0.1 µM, first compound 0.01 µM
[33] = second compound 0.316 µM, first compound 0.01 µM
[34] = second compound 1 µM, first compound 0.01 µM
[35] = second compound 3.16 µM, first compound 0.01 µM
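Further: compound exposure lasted seven days before readout.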
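Wherever viability, T/C is given: 100% = DMSO vehicle control viability.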

With `CC(C)NCC(C(=O)N1CCN(c2ncnc3c2C(C)CC3O)CC1)c1ccc(Cl)cc1` (stereo not given) + C=CC(=O)N1CCN(c2nc(OCC3CCCN3C)nc3c2CCN(c2cccc4cccc(C)c24)C3)CC1CC#N the IC50 (second compound 0.0316 µM) was over 10 µM, the IC50 (second compound 0.1 µM) was over 10 µM and the IC50 (second compound 0.316 µM) was over 10 µM. For the same compound, the IC50 (second compound 1 µM) was over 10 µM, the IC50 (second compound 3.16 µM) was 1.93 µM and the viability, T/C [1] was 84.8%. The viability, T/C [2] was 84.9%, the viability, T/C [3] was 79.5% and the viability, T/C [4] was 85.4%. It also gave a viability, T/C [5] of 85.9%, a viability, T/C [6] of 77.5% and a viability, T/C [7] of 95.2%. For the same compound, the viability, T/C [8] was 91.6%, the viability, T/C [9] was 78.4% and the viability, T/C [10] was 78%. For the same compound, the viability, T/C [11] was 90.3%, the viability, T/C [12] was 74.6% and the viability, T/C [13] was 64.7%. For the same compound, the viability, T/C [14] was 84.2%, the viability, T/C [15] was 75.5% and the viability, T/C [16] was 90%. The viability, T/C [17] was 82.5%, the viability, T/C [18] was 87% and the viability, T/C [19] was 72%. The viability, T/C [20] was 72.2%, the viability, T/C [21] was 48.3% and the viability, T/C [22] was 70.5%. It also gave a viability, T/C [23] of 81.9%, a viability, T/C [24] of 83.3% and a viability, T/C [25] of 70.9%. The viability, T/C [26] was 55.8%, the viability, T/C [27] was 80.8% and the viability, T/C [28] was 55.1%. For the same compound, the viability, T/C [29] was 50.7% and the viability, T/C [30] was 41.5%.

For `CC1COCCN1c1cc(-c2ccnn2C)c2ccnc(-c3ccn[nH]3)c2n1` (stereo not given) + C=CC(=O)N1CCN(c2nc(OCC3CCCN3C)nc3c2CCN(c2cccc4cccc(C)c24)C3)CC1CC#N, the IC50 (second compound 0.0316 µM) was 2.39 µM, the IC50 (second compound 0.1 µM) was 0.434 µM and the IC50 (second compound 0.316 µM) was 0.813 µM. The IC50 (second compound 1 µM) was 0.47 µM, the IC50 (second compound 3.16 µM) was under 0.01 µM and the viability, T/C [31] was 98.8%. The viability, T/C [1] was 78.5%, the viability, T/C [2] was 78.3% and the viability, T/C [3] was 69.2%. It also gave a viability, T/C [4] of 74.9%, a viability, T/C [5] of 40.7% and a viability, T/C [32] of 115%. The viability, T/C [7] was 74%, the viability, T/C [8] was 73.3% and the viability, T/C [9] was 51.6%. For the same compound, the viability, T/C [10] was 50.3%, the viability, T/C [11] was 28.4% and the viability, T/C [33] was 78.5%. It also gave a viability, T/C [13] of 72.7%, a viability, T/C [14] of 71.2% and a viability, T/C [15] of 69.5%. The viability, T/C [16] was 45.7%, the viability, T/C [17] was 33.2% and the viability, T/C [34] was 83.4%. It also gave a viability, T/C [19] of 58.3%, a viability, T/C [20] of 84.5% and a viability, T/C [21] of 58.6%. The viability, T/C [22] was 33.9%, the viability, T/C [23] was 26.7% and the viability, T/C [35] was 38.3%. For the same compound, the viability, T/C [25] was 64.3%, the viability, T/C [26] was 24.3% and the viability, T/C [27] was 29.5%. For the same compound, the viability, T/C [28] was 30.7% and the viability, T/C [29] was 13.2%.

With `CCN1CCN(Cc2ccc(Nc3ncc(F)c(-c4cc(F)c5nc(C)n(C(C)C)c5c4)n3)nc2)CC1` + C=CC(=O)N1CCN(c2nc(OCC3CCCN3C)nc3c2CCN(c2cccc4cccc(C)c24)C3)CC1CC#N the IC50 (second compound 0.0316 µM) was over 1 µM, the IC50 (second compound 0.1 µM) was 0.599 µM and the IC50 (second compound 0.316 µM) was over 1 µM. For the same compound, the IC50 (second compound 1 µM) was 0.654 µM, the IC50 (second compound 3.16 µM) was over 1 µM and the viability, T/C (second compound 0.0316 µM, first compound 0.00316 µM) was 76.5%. It also gave a viability, T/C [31] of 57.7%, a viability, T/C [1] of 72.2% and a viability, T/C [2] of 63.6%. The viability, T/C [3] was 81.8%, the viability, T/C [4] was 66.2% and the viability, T/C (second compound 0.1 µM, first compound 0.00316 µM) was 81.6%. The viability, T/C [32] was 79.1%, the viability, T/C [7] was 75.8% and the viability, T/C [8] was 76.4%. It also gave a viability, T/C [9] of 68.7%, a viability, T/C [10] of 34.9% and a viability, T/C (second compound 0.316 µM, first compound 0.00316 µM) of 61.7%. For the same compound, the viability, T/C [33] was 78.4%, the viability, T/C [13] was 70.7% and the viability, T/C [14] was 64.9%. For the same compound, the viability, T/C [15] was 49.1%, the viability, T/C [16] was 56.5% and the viability, T/C (second compound 1 µM, first compound 0.00316 µM) was 82.1%. It also gave a viability, T/C [34] of 71.8%, a viability, T/C [19] of 60.8% and a viability, T/C [20] of 63%. It also gave a viability, T/C [21] of 73%, a viability, T/C [22] of 38.4% and a viability, T/C (second compound 3.16 µM, first compound 0.00316 µM) of 51.3%. For the same compound, the viability, T/C [35] was 86.8%, the viability, T/C [25] was 64.4% and the viability, T/C [26] was 69.2%. It also gave a viability, T/C [27] of 76% and a viability, T/C [28] of 37.4%.

Compound `CCNC(=O)CC1N=C(c2ccc(Cl)cc2)c2cc(OC)ccc2-n2c(C)nnc21` (stereo not given) + C=CC(=O)N1CCN(c2nc(OCC3CCCN3C)nc3c2CCN(c2cccc4cccc(C)c24)C3)CC1CC#N has an IC50 (second compound 0.0316 µM) of 1.53 µM, an IC50 (second compound 0.1 µM) of 1.73 µM and an IC50 (second compound 0.316 µM) of 1.33 µM. The IC50 (second compound 1 µM) was 1.44 µM, the IC50 (second compound 3.16 µM) was 0.2 µM and the viability, T/C [1] was 90.5%. It also gave a viability, T/C [2] of 76.3%, a viability, T/C [3] of 92.1% and a viability, T/C [4] of 57.6%. It also gave a viability, T/C [5] of 42.6%, a viability, T/C [6] of 31.6% and a viability, T/C [7] of 85.5%. The viability, T/C [8] was 93.8%, the viability, T/C [9] was 79.7% and the viability, T/C [10] was 59.2%. The viability, T/C [11] was 40.4%, the viability, T/C [12] was 27.2% and the viability, T/C [13] was 101%. The viability, T/C [14] was 88.3%, the viability, T/C [15] was 66.4% and the viability, T/C [16] was 54.1%. For the same compound, the viability, T/C [17] was 40.4%, the viability, T/C [18] was 22.9% and the viability, T/C [19] was 89.3%. It also gave a viability, T/C [20] of 74.6%, a viability, T/C [21] of 70.4% and a viability, T/C [22] of 58.2%. The viability, T/C [23] was 35.8%, the viability, T/C [24] was 20.6% and the viability, T/C [25] was 69.9%. For the same compound, the viability, T/C [26] was 55.2%, the viability, T/C [27] was 46.9% and the viability, T/C [28] was 33.2%. The viability, T/C [29] was 29.6% and the viability, T/C [30] was 18.4%.

Reference: PubChem BioAssay AID1963872 (Molecular Pharmacology Branch, DTP, NCI, 2024)
